The values below come from paper PMC2689075 (Current biology : CB, 2009).

The term IC50 denotes the concentration that gives 50% inhibition.

The assay addresses T1, atypical protein kinase C (aPKC) (Drosophila melanogaster, UniProt A1Z9X0).
T1 sequence (A1Z9X0 1-606): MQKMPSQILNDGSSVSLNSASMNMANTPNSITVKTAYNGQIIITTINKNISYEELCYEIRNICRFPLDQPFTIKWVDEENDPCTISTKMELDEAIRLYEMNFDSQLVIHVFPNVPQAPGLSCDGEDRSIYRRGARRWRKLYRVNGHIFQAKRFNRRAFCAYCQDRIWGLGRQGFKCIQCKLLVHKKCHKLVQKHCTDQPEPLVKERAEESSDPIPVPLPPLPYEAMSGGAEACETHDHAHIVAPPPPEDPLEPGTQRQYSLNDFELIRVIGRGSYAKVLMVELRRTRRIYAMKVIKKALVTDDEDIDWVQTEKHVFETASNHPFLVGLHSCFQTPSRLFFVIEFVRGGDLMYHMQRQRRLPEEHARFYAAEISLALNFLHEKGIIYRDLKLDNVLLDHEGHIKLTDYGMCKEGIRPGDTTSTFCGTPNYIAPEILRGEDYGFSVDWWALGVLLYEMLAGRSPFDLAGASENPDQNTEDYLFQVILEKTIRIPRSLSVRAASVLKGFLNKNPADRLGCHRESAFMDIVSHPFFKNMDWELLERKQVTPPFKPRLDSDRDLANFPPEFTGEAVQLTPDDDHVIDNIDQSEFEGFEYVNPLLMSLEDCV
The assay can be described thus: in vitro […] kinase assay with purified recombinant aPKC. The assay is classed as biochemical.

Regarding `C[C@@H](N)[C@H]1CC[C@H](C(=O)Nc2ccncc2)CC1` [Y-27632], the IC50 was < 10 µM.
